Measured values published in patent US7659404B2, “Broad spectrum 2-(substituted-amino)-benzothiazole sulfonamide HIV protease inhibitors” (Tibotec Pharmaceuticals Ltd., priority 2001, dated 2010).

Columns and labels:
[1] = system: clinically isolated HIV strain T; format: cell-based; settings: FR=EC50(mutant strain)/EC50(HIV-1 strain LAI)
Procedure: (§1) HIV- or mock-infected MT4 cells were incubated for five days in the presence of various concentrations of the inhibitor. […] Cell viability is measured by measuring the concentration of MTT, a yellow, water soluble tetrazolium dye that is converted to a purple, water insoluble formazan in the mitochondria of living cells only. Upon solubilization of the resulting formazan crystals with isopropanol, the absorbance of the solution is monitored at 540 nm. The values correlate directly to the number of living cells remaining in the culture at the completion of the five day incubation. The inhibitory activity of the compound was monitored on the virus-infected cells and was expressed as EC50 and EC90. These values represent the amount of the compound required to protect 50% and 90%, respectively, of the cells from the cytopathogenic effect of the virus. The toxicity of the compound was measured on the mock-infected cells and was expressed as CC50, which represents the concentration of compound required to inhibit the growth of the cells by 50%. The selectivity index (SI) (ratio CC50/EC50) is an indication of the selectivity of the anti-HIV activity of the inhibitor.
(§2) Because of the increasing emergence of drug resistant HIV strains, the present compounds were tested for their potency against clinically isolated HIV strains harboring several mutations.
(§3) As a measure of the broad spectrum activity of the present compounds, the fold resistance (FR) defined as FR=EC50(mutant strain)/EC50(HIV-1 strain LAI).

[2] = system: clinically isolated HIV strain H; format: cell-based; settings: FR=EC50(mutant strain)/EC50(HIV-1 strain LAI)
Procedure: as §1, §2, §3

[3] = system: clinically isolated HIV strain J; format: cell-based; settings: FR=EC50(mutant strain)/EC50(HIV-1 strain LAI)
Procedure: as §1, §2, §3

[4] = system: clinically isolated HIV strain O; format: cell-based; settings: FR=EC50(mutant strain)/EC50(HIV-1 strain LAI)
Procedure: as §1, §2, §3

[5] = system: clinically isolated HIV strain I; format: cell-based; settings: FR=EC50(mutant strain)/EC50(HIV-1 strain LAI)
Procedure: as §1, §2, §3

virus strain F (R13025) = assay: microbe, parasite or virus in culture; format: cell-based, HIV; settings: FR=EC50(mutant strain)/EC50(HIV-1 strain LAI); strain F
Procedure, shortened: (§4)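 First, MT4 cells were infected with HIV (or mock-infected) and incubated five days with varying inhibitor concentrations. Next, living cells were quantified via MTT reduction, measuring absorbance at 540 nm. Finally, EC50 was derived and fold resistance calculated relative to HIV-1 strain LAI.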

virus strain S (R13080) = assay: microbe, parasite or virus in culture; format: cell-based, HIV; settings: FR=EC50(mutant strain)/EC50(HIV-1 strain LAI); strain S
Procedure, shortened: as §4

SMILES | fold resistance (FR), strain T [1] | fold resistance (FR), strain H [2] | fold resistance (FR), strain J [3] | fold resistance (FR), strain O [4] | fold resistance (FR), strain I [5] | fold resistance (FR), strain F (virus strain F (R13025)) | fold resistance (FR), strain S (virus strain S (R13080))
CC(C)CN(C[C@@H](O)[C@H](Cc1ccccc1)NC=O)S(=O)(=O)c1ccc2nc(NC(=O)CN3CCCC3)sc2c1 [Compound 55] | 26.2 | 10.0 | 26.2 | 26.2 | 9.1 | 26.2 | 26.2
CC(C)CN(C[C@@H](O)[C@H](Cc1ccccc1)NC(=O)OCc1cncs1)S(=O)(=O)c1ccc2nc(NCCN3CCNCC3)sc2c1 [Compound 57] | 9.0 | 1.6 | 1.3 | 1.3 | 1.3 | 1.3 | 1.6
CC(C)CN(C[C@@H](O)[C@H](Cc1ccccc1)NC(=O)OCc1cccnc1)S(=O)(=O)c1ccc2nc(NCCN3CCNCC3)sc2c1 [Compound 58] | 27.0 | 1.6 | 2.0 | 1.7 | 0.7 | 2.1 | 4.4
Cc1cccc(C)c1OCC(=O)N[C@@H](Cc1ccccc1)[C@H](O)CN(CC(C)C)S(=O)(=O)c1ccc2nc(NCCN3CCNCC3)sc2c1 [Compound 59] | 22.2 | 1.2 | 1.7 | 2.0 | 1.2 | 2.3 | 4.7
Cc1c(N)cccc1C(=O)N[C@@H](Cc1ccccc1)[C@H](O)CN(CC(C)C)S(=O)(=O)c1ccc2nc(NCCN3CCNCC3)sc2c1 [Compound 60] | 4.1 | 1.3 | 0.6 | 1.1 | 1.3 | 1.2 | 1.4
CC(C)CN(C[C@@H](O)[C@H](Cc1ccccc1)NC(=O)OCc1cccnc1)S(=O)(=O)c1ccc2nc(NC(=O)CN3CCCC3)sc2c1 [Compound 61] | 1090.0 | 5.2 | 10.6 | 7.1 | 4.8 | 32.7 | 80.0
Cc1c(N)cccc1C(=O)N[C@@H](Cc1ccccc1)[C@H](O)CN(CC(C)C)S(=O)(=O)c1ccc2nc(NC(=O)CN3CCCC3)sc2c1 [Compound 62] | 277.9 | 3.2 | 2.4 | 2.7 | 2.8 | 14.5 | 16.1
Cc1c(N)cccc1C(=O)N[C@@H](Cc1ccccc1)[C@H](O)CN(CC(C)C)S(=O)(=O)c1ccc2nc(NC(=O)CN3CCN(C)CC3)sc2c1.O=C(O)C(F)(F)F [Compound 66] | 87.9 | 0.9 | 1.2 | 1.0 | 1.0 | 4.0 | 5.6
CC(C)CN(C[C@@H](O)[C@H](Cc1ccccc1)NC(=O)O[C@H]1CCOC1)S(=O)(=O)c1ccc2nc(NCCN3CCCC3)sc2c1.O=C(O)C(F)(F)F [Compound 68] | 775.2 | 7.3 | 3.9 | 3.5 | 2.4 | 65.2 | 180.7
Cc1cc(Br)ccc1C(=O)N[C@@H](Cc1ccccc1)[C@H](O)CN(CC(C)C)S(=O)(=O)c1ccc2nc(NC(=O)CN3CCCC3)sc2c1 [Compound 70] | 145.1 | 3.1 | 3.3 | 3.2 | 3.7 | 4.7 | 10.4
CC(=O)N(CCN1CCCC1)c1nc2ccc(S(=O)(=O)N(CC(C)C)C[C@@H](O)[C@H](Cc3ccccc3)NC(=O)OCc3cccnc3)cc2s1 [Compound 71] | 321.5 | 2.7 | 7.0 | 5.0 | 2.2 | 29.6 | 79.6
CC(=O)Nc1nc2ccc(S(=O)(=O)N(CC(C)C)C[C@@H](O)[C@H](Cc3ccccc3)NC(=O)c3cc([N+](=O)[O-])ccc3C)cc2s1 [Compound 72] | 641.1 | 24.9 | 11.4 | 24.4 | 26.2 | 67.0 | 118.0
CC(=O)Nc1nc2ccc(S(=O)(=O)N(CC(C)C)C[C@@H](O)[C@H](Cc3ccccc3)NC(=O)c3cc(N)ccc3C)cc2s1 [Compound 73] | 966.6 | 9.8 | 14.1 | 20.7 | 12.1 | 43.1 | 966.6
Cc1cc(C#N)cc(C)c1OCC(=O)N[C@@H](Cc1ccccc1)[C@H](O)CN(CC(C)C)S(=O)(=O)c1ccc2nc(NC(=O)CN3CCCC3)sc2c1 [Compound 75] | 93.6 | 3.6 | 19.4 | 18.7 | 7.4 | 16.3 | 19.0
CC(=O)N(C)c1nc2ccc(S(=O)(=O)N(CC(C)C)C[C@@H](O)[C@H](Cc3ccccc3)NC(=O)COc3c(C)cccc3C)cc2s1 [Compound 77] | 144.7 | 2.2 | 11.0 | 11.7 | 8.3 | 8.9 | 11.6
CC(=O)N(CCN1CCCC1)c1nc2ccc(S(=O)(=O)N(CC(C)C)C[C@@H](O)[C@H](Cc3ccccc3)NC(=O)COc3c(C)cccc3C)cc2s1 [Compound 78] | 60.5 | 2.6 | 2.9 | 8.9 | 3.9 | 4.8 | 12.1
CC(=O)N(C)c1nc2ccc(S(=O)(=O)N(CC(C)C)C[C@@H](O)[C@H](Cc3ccccc3)NC(=O)O[C@H]3CCOC3)cc2s1 [Compound 79] | 893.1 | 12.1 | 9.8 | 7.4 | 3.9 | 113.0 | 313.0
CC(=O)N(C)c1nc2ccc(S(=O)(=O)N(CC(C)C)C[C@@H](O)[C@H](Cc3ccccc3)NC(=O)OCc3cncs3)cc2s1 [Compound 80] | 457.6 | 5.7 | 17.6 | 8.1 | 3.9 | 17.4 | 26.6
CC(=O)N(C)c1nc2ccc(S(=O)(=O)N(CC(C)C)C[C@@H](O)[C@H](Cc3ccccc3)NC(=O)OCc3cccnc3)cc2s1 [Compound 81] | 387.6 | 5.6 | 29.6 | 20.4 | 6.1 | 106.8 | 121.0
CC(=O)N(C)c1nc2ccc(S(=O)(=O)N(CC(C)C)C[C@@H](O)[C@H](Cc3ccccc3)NC(=O)c3cccc(N)c3C)cc2s1 [Compound 82] | 214.1 | 5.0 | 5.5 | 8.0 | 4.4 | 13.8 | 17.9
